Data published in patent US9980919B2, “Preparation of pH-responsive nanoparticles and promoted delivery of anticancer drugs into deep tumor tissues and application thereof” (NATIONAL TSING HUA UNIVERSITY, priority 2015, dated 2018).

Experiments:
Assay type in all cases: in vivo, C57BL/6J mice
[1] = system: TRAMP-C1 tumor; test: Tumor local temperature under 808 nm NIR laser irradiation (infrared thermal imaging camera); details: 6 hours post-injection; 808 nm laser 1.0 W/cm^2, 5 min; ICG 1.6 mg/kg I.V.
Experimental: (§1) Please refer to FIG. 15. FIG. 15 is a time—temperature figure of the pH-responsive ICG/DOX-loaded NHTPNs of an embodiment in the instant disclosure. […] 6 hours post-injection, the mice (5 in each group) were irradiated at the tumor sites with 808 nm laser (1.0 W/cm^2) for 5 min. The tumor volumes of various groups were measured daily and normalized against the original volumes to assess the antitumor efficacy. The tumor local temperature was monitored by infrared thermal imaging camera.

[2] = system: TRAMP-C1 tumor; test: ICG fluorescence accumulated in organs and tumor of TRAMP-C1 tumor-bearing mice (IVIS); details: 48 hours after tail vein injection; ICG 1.6 mg/kg
Experimental: (§2) Please refer to FIGS. 12 and 14. […] To establish tumor model, 2×10^7 TRAMP-C1 cells were subcutaneously injected into the right thigh of mice. Two weeks post-inoculation, the low permeability tumor model was established. Tumor volume (V) was calculated as follows: V=L×W^2/2, where W is the tumor measurement at the widest point and L the tumor dimension at the longest point. […] The fluorescence signals of ICG (Ex. 745 nm and Em. 810 nm) at 2, 4, 6, 24 and 48 h post-injection were collected on the IVIS. The treated mice were then sacrificed and the major organs harvested for individual organ imaging by IVIS. After tail vein injection for 48 hours and observation in vivo experiments, the mouse was sacrificed and its major organs and tumors taken for detecting ICG fluorescent performance of each organ using a non-invasive in vivo imaging system (IVIS).

[3] = system: TRAMP-C1 tumor; test: Tumor growth inhibition (relative tumor volume over 15 days) in TRAMP-C1 tumor-bearing mice; details: with NIR laser (+laser)
Experimental: as §2, §1

CC1(C)C(/C=C/C=C/C=C/C=C2\N(CCCCS(=O)(=O)O)c3ccc4ccccc4c3C2(C)C)=[N+](CCCCS(=O)(=O)[O-])c2ccc3ccccc3c21 [Free ICG, indocyanine green]
highest temperature in the tumor [1]: 41.4 °C
ICG fluorescent expression in the tumor [2]: no fluorescent expression in the tumor
organ in which the ICG fluorescence is expressed [2]: mostly expressed in the liver
tumor growth inhibition effect [3]: no significant tumor growth inhibition effect
